Experimental data from ChEMBL document CHEMBL1201862, “PubChem BioAssay data set” (2004).
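Compound exposure: 48 hours, 5 concentrations, 96-well plates. GI50: concentration for 50% inhibition of growth.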 Activity calls are given as the source filed them. Rule as the data show it: active = GI50 up to about 1.1 µM and inactive = higher.

Tests used:
Assay in all cases: growth of human tumour cells (NCI), 48 h
[1] = test system: 786-0
[2] = test system: A498
[3] = test system: A549
[4] = test system: ACHN
[5] = test system: BT-549
[6] = test system: CAKI-1
[7] = test system: CCRF-CEM
[8] = test system: COLO 205
[9] = test system: DU-145
[10] = test system: EKVX
[11] = test system: HCC 2998
[12] = test system: HCT-116
[13] = test system: HCT-15
[14] = test system: HL-60
[15] = test system: HOP-62
[16] = test system: HOP-92
[17] = test system: HT-29
[18] = test system: Hs-578T
[19] = test system: IGROV-1
[20] = test system: K562
[21] = test system: KM12
[22] = test system: LOX IMVI
[23] = test system: M14
[24] = test system: MCF7
[25] = test system: MDA-MB-231
[26] = test system: MDA-MB-435
[27] = test system: MDA-N
[28] = test system: MOLT-4
[29] = test system: Malme-3M
[30] = test system: NCI-H226
[31] = test system: NCI-H23
[32] = test system: NCI-H460
[33] = test system: NCI-H522
[34] = test system: NCI/ADR-RES
[35] = test system: OVCAR-3
[36] = test system: OVCAR-4
[37] = test system: OVCAR-5
[38] = test system: OVCAR-8
[39] = test system: PC-3
[40] = test system: RPMI-8226
[41] = test system: RXF 393
[42] = test system: SF-268
[43] = test system: SF-295
[44] = test system: SF-539
[45] = test system: SK-MEL-28
[46] = test system: SK-MEL-2
[47] = test system: SK-MEL-5
[48] = test system: SK-OV-3
[49] = test system: SN12C
[50] = test system: SNB-19
[51] = test system: SNB-75
[52] = test system: SR
[53] = test system: SW-620
[54] = test system: T47D
[55] = test system: TK-10
[56] = test system: U-251
[57] = test system: UACC-257
[58] = test system: UACC-62
[59] = test system: UO-31

## N/N=C(/C=C1\C(=O)Nc2ccccc21)c1ccccc1
[1]
  GI50: 25.3 µM (inactive)
[2]
  GI50: 28.5 µM (inactive)
[3]
  GI50: 29.6 µM (inactive)
[4]
  GI50: 45.1 µM (inactive)
[5]
  GI50: 15.4 µM (inactive)
[6]
  GI50: 24.3 µM (inactive)
[7]
  GI50: 13.2 µM (inactive)
[8]
  GI50: 19.9 µM (inactive)
[9]
  GI50: 37.2 µM (inactive)
[10]
  GI50: 32.9 µM (inactive)
[11]
  GI50: 20 µM (inactive)
[12]
  GI50: 15.3 µM (inactive)
[13]
  GI50: 8.43 µM
[14]
  GI50: 3.8 µM (inactive)
[15]
  GI50: 32.9 µM (inactive)
[16]
  GI50: 24.5 µM (inactive)
[17]
  GI50: 19.9 µM (inactive)
[18]
  GI50: 15.4 µM (inactive)
[19]
  GI50: 30.4 µM (inactive)
[20]
  GI50: 5.45 µM (inactive)
[21]
  GI50: 11.1 µM (inactive)
[22]
  GI50: 22.2 µM (inactive)
[23]
  GI50: 15.5 µM (inactive)
[24]
  GI50: 18.9 µM (inactive)
[25]
  GI50: 20.3 µM (inactive)
[26]
  GI50: 4.15 µM (inactive)
[27]
  GI50: 3.77 µM (inactive)
[28]
  GI50: 19.7 µM (inactive)
[29]
  GI50: 23.5 µM (inactive)
[30]
  GI50: 45.8 µM (inactive)
[31]
  GI50: 30.1 µM (inactive)
[32]
  GI50: 28.6 µM (inactive)
[33]
  GI50: 27.9 µM (inactive)
[34]
  GI50: 18.2 µM (inactive)
[35]
  GI50: 18.2 µM (inactive)
[36]
  GI50: 58.7 µM (inactive)
[37]
  GI50: 50.9 µM (inactive)
[38]
  GI50: 24 µM (inactive)
[39]
  GI50: 20.3 µM (inactive)
[40]
  GI50: 21 µM (inactive)
[41]
  GI50: 20 µM (inactive)
[42]
  GI50: 55.6 µM (inactive)
[43]
  GI50: 21.4 µM (inactive)
[44]
  GI50: 18.7 µM (inactive)
[45]
  GI50: 26.7 µM (inactive)
[46]
  GI50: 61.8 µM (inactive)
[47]
  GI50: 10.5 µM (inactive)
[48]
  GI50: 32.1 µM (inactive)
[49]
  GI50: 26.3 µM (inactive)
[50]
  GI50: 27.6 µM (inactive)
[51]
  GI50: 18.7 µM (inactive)
[52]
  GI50: 40.8 µM (inactive)
[53]
  GI50: 15.9 µM (inactive)
[54]
  GI50: 66.4 µM (inactive)
[55]
  GI50: 42.8 µM (inactive)
[56]
  GI50: 24.4 µM (inactive)
[57]
  GI50: 36.1 µM (inactive)
[58]
  GI50: 24.6 µM (inactive)
[59]
  GI50: 32.2 µM (inactive)

## O=C1N[C@H]2c3c(Cl)sc(Cl)c3C(=O)[C@H]2O1
[1]
  GI50: 20.2 µM (inactive)
[2]
  GI50: 20.2 µM (inactive)
[3]
  GI50: 36.8 µM (inactive)
[4]
  GI50: 13.4 µM (inactive)
[5]
  GI50: 22.3 µM (inactive)
[6]
  GI50: 17.8 µM (inactive)
[7]
  GI50: 2.58 µM (inactive)
[8]
  GI50: 14 µM (inactive)
[9]
  GI50: 23.4 µM (inactive)
[10]
  GI50: 12.3 µM (inactive)
[11]
  GI50: 5.46 µM (inactive)
[12]
  GI50: 3.64 µM (inactive)
[13]
  GI50: 2.38 µM
[14]
  GI50: 1.79 µM (inactive)
[15]
  GI50: 20.9 µM (inactive)
[16]
  GI50: 18.5 µM (inactive)
[17]
  GI50: 4.38 µM (inactive)
[18]
  GI50: 17.9 µM (inactive)
[19]
  GI50: 3.55 µM (inactive)
[20]
  GI50: 2.99 µM (inactive)
[21]
  GI50: 39.1 µM (inactive)
[22]
  GI50: 3.61 µM (inactive)
[23]
  GI50: 9.82 µM (inactive)
[24]
  GI50: 39.8 µM (inactive)
[25]
  GI50: 25.6 µM (inactive)
[26]
  GI50: 14.3 µM (inactive)
[27]
  GI50: 24 µM (inactive)
[28]
  GI50: 2.01 µM (inactive)
[29]
  GI50: 10.1 µM (inactive)
[30]
  GI50: 17.9 µM (inactive)
[31]
  GI50: 10.5 µM (inactive)
[32]
  GI50: 8.89 µM (inactive)
[33]
  GI50: 1.68 µM (inactive)
[34]
  GI50: 15.5 µM (inactive)
[35]
  GI50: 17.3 µM (inactive)
[36]
  GI50: 21.9 µM (inactive)
[37]
  GI50: 22.1 µM (inactive)
[38]
  GI50: 4.31 µM (inactive)
[39]
  GI50: 18.2 µM (inactive)
[40]
  GI50: 19.7 µM (inactive)
[41]
  GI50: 25.6 µM (inactive)
[42]
  GI50: 17 µM (inactive)
[43]
  GI50: 18.8 µM (inactive)
[44]
  GI50: 9.68 µM (inactive)
[45]
  GI50: 6.79 µM (inactive)
[46]
  GI50: 24 µM (inactive)
[47]
  GI50: 24 µM (inactive)
[48]
  GI50: 23.1 µM (inactive)
[49]
  GI50: 8.71 µM (inactive)
[50]
  GI50: 20.6 µM (inactive)
[51]
  GI50: 19.1 µM (inactive)
[52]
  GI50: 2.09 µM (inactive)
[53]
  GI50: 2.84 µM (inactive)
[54]
  GI50: 31.6 µM (inactive)
[55]
  GI50: 64.1 µM (inactive)
[56]
  GI50: 5.51 µM (inactive)
[57]
  GI50: 16.8 µM (inactive)
[58]
  GI50: 19.1 µM (inactive)
[59]
  GI50: 19.1 µM (inactive)
